The values that follow come from paper PMC9966578, “Barbamide Displays Affinity for Membrane-Bound Receptors and Impacts Store-Operated Calcium Entry in Mouse Sensory Neurons” (Marine Drugs, 2023).

What all share (test): radioligand binding assay (NIMH PDSP), secondary screen
For test [1], the target named is T1, dopamine D3 receptor (D3R) (Homo sapiens, UniProt P35462).
T1 construct: gene DRD3

The target of test [2] is T2, kappa opioid receptor (KOR) (Homo sapiens, UniProt P41145).
T2 construct: gene OPRK1
T2 sequence (P41145 whole entry): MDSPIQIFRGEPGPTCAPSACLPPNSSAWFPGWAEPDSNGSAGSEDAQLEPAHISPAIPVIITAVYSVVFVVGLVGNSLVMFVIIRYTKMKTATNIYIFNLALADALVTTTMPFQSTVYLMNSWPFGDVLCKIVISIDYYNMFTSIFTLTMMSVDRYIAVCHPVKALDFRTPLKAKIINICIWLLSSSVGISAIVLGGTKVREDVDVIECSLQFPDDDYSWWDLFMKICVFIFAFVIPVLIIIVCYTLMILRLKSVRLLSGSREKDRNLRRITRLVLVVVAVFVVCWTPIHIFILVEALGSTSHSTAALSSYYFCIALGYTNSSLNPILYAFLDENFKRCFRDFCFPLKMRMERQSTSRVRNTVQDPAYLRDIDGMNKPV

Test [3] concerns the target T3, dopamine transporter (DAT) (Homo sapiens, UniProt Q01959).
T3 construct: gene SLC6A3

What is called Ki is the equilibrium dissociation constant of an inhibitor or competing ligand from its target.

T1 sequence (P35462 whole entry): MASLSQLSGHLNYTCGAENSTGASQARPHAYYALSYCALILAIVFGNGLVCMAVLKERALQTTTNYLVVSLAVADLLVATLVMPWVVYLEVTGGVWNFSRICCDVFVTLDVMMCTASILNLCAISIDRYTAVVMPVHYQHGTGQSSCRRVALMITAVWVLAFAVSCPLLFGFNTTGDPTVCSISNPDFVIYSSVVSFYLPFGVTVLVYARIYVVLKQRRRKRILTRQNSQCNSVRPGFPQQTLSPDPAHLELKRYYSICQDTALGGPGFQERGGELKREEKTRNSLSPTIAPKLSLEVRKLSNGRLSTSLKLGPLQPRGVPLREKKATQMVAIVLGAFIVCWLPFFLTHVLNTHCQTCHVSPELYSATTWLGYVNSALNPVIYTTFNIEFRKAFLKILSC
T3 sequence (Q01959 whole entry): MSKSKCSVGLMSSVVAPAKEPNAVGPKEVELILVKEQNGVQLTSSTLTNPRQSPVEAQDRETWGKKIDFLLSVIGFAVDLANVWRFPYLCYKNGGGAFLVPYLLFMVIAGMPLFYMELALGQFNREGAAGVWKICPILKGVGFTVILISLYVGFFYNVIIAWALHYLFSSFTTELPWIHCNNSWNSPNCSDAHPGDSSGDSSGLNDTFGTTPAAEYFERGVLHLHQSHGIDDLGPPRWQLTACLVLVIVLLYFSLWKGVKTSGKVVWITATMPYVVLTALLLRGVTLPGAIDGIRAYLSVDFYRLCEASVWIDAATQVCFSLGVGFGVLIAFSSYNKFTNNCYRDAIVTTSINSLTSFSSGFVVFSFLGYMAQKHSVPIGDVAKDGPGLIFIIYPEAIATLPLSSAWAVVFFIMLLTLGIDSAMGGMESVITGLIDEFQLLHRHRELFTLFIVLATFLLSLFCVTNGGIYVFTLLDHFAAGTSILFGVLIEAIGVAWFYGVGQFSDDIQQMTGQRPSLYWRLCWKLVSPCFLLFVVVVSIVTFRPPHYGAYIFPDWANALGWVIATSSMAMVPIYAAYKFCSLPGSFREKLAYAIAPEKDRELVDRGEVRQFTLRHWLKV

Regarding `CO/C(=C/C(=O)N(C)C(Cc1ccccc1)c1nccs1)CC(C)C(Cl)(Cl)Cl` (stereo not drawn) [compound 1, barbamide], the Ki in test [1] was 446 nM; in test [2], 79.1 nM; in test [3], 3100 nM.
